Data on 31 molecules can be found in patent publication US4843087A (priority 1986, dated 1989).

The test system of one experiment is Polio 2. Put plainly: microbe, parasite or virus in culture. Type of experiment: cell-based, poliovirus. To be noted: Enterovirus C, HeLa, read-out: Polio 2 MIC.
For experiment [1], the system named is human rhinovirus (HRV) serotypes. Put plainly: microbe, parasite or virus in culture. It counts as cell-based. To be noted: for MIC50: read-out: Rhinovirus MIC50; for IC (MIC80 of serotype panel): read-out: Rhinovirus MIC80.

Converted amounts (≈) assume the structure as drawn.

`Cc1noc(CCCCCCCOc2ccc(C3=NCCO3)cc2)c1CCl` [Example 35, 4-Chloromethyl-5-{7-[4-(4,5-dihydro-2-oxazolyl)phenoxy]heptyl}-3-methylisoxazole]: in the experiment on Polio 2, the MIC worked out at 0.05 µg/mL (≈ 0.128 µM). Besides, in experiment [1], the MIC50 is 1.39 µg/mL (≈ 3.54 µM) and the IC (MIC80 of serotype panel) came to 1.8 µg/mL.

Regarding `COc1cc(C2=NCCO2)ccc1OCCCCCc1cc(C)no1` [Example 42, 5-{5-[4-(4,5-Dihydro-2oxazolyl)-2-methoxyphenoxy]pentyl}-3-methylisoxazole], in the experiment with Polio 2, the MIC turned out to be 0.12 µg/mL (≈ 0.348 µM). Moreover, in experiment [1], the MIC50 turned out to be 0.35 µg/mL (≈ 1.02 µM) and the IC (MIC80 of serotype panel) came out at 0.64 µg/mL.

On to `Cc1cc(CCCCCCCOc2ccc(-c3nc(C)co3)cc2)on1` [Example 135, 5-{7-[4-(4-Methyl-2-oxazolyl)phenoxy]heptyl}-3-methylisoxazole], for which, in the experiment on Polio 2, the MIC turned out to be 2.6 µg/mL (≈ 7.34 µM). In experiment [1], the MIC50 stood at 0.335 µg/mL (≈ 0.945 µM) and the IC (MIC80 of serotype panel) was determined as 0.6 µg/mL.

Take `CC(=O)c1cc(C2=NCCO2)ccc1OCCCCCc1cc(C)no1` [Example 63, 5-{5-[4-(4,5-Dihydro-2-oxazolyl)-2-acetylphenoxy]pentyl}-3-methylisoxazole]: the MIC in the experiment with Polio 2 turned out to be 2.3 µg/mL (≈ 6.45 µM). In experiment [1], the MIC50 was 0.55 µg/mL (≈ 1.54 µM) and the IC (MIC80 of serotype panel) was 1.05 µg/mL.

For `Cc1cc(CCCOCOCCOc2ccc(C3=NCCO3)cc2C)on1` [Example 83, 5-{3-[[2-[4-(4,5-Dihydro-2-oxazolyl)-2-methylphenoxy]ethoxy]methoxy]propyl}-3-methylisoxazole], in the experiment on Polio 2, the MIC amounted to 5 µg/mL (≈ 13.4 µM). For the same molecule, in experiment [1], the MIC50 is 3.75 µg/mL (≈ 10 µM) and the IC (MIC80 of serotype panel) turned out to be 99 µg/mL.

For `Cc1cc(CCCCCCOc2ccc(C3=NCCO3)cc2Cl)on1` [Example 16, 5-{-[26-Chloro-4-(4,5-dihydro-2-oxazolyl)phenoxy]hexyl}-3-methylisoxazole], the MIC in the experiment on Polio 2 amounted to 0.13 µg/mL (≈ 0.358 µM). Besides, in experiment [1], the MIC50 was found to be 0.08 µg/mL (≈ 0.22 µM) and the IC (MIC80 of serotype panel) is 0.43 µg/mL.

As for `C=CCc1cc(C2=NCCO2)ccc1OCCCCCc1cc(C)no1` [Example 61, 5-{5-[4-(4,5-Dihydro-2-oxazolyl)-2-(2-propenyl)phenoxy]pentyl}-3-methylisoxazole], the MIC in the experiment on Polio 2 was found to be 0.54 µg/mL (≈ 1.52 µM). Further, in experiment [1], the MIC50 was 0.39 µg/mL (≈ 1.1 µM) and the IC (MIC80 of serotype panel) amounted to 0.75 µg/mL.

`Cc1cc(CCCCCCOc2ccc(C3=NCCO3)cc2)on1` [14(b), 5-{6-[4-(4,5-Dihydro-2-oxazolyl)phenoxy]hexyl}-3-methylisoxazole]: the MIC in the experiment with Polio 2 was 0.017 µg/mL (≈ 0.0518 µM). Besides, in experiment [1], the MIC50 amounted to 0.8 µg/mL (≈ 2.44 µM) and the IC (MIC80 of serotype panel) was determined as 25.5 µg/mL.

Turning to `Cc1cc(CCCCCOc2ccc(C3=NCCO3)cc2[N+](=O)[O-])on1` [Example 53, 5-{5-[4-(4,5-Dihydro-2-oxazolyl)-2-nitrophenoxy]pentyl}-3-methylisoxazole], the MIC in the experiment on Polio 2 worked out at 0.08 µg/mL (≈ 0.223 µM). In experiment [1], the MIC50 worked out at 0.087 µg/mL (≈ 0.242 µM) and the IC (MIC80 of serotype panel) came to 0.64 µg/mL.

Regarding `Cc1cc(CCCCCOc2ccc(C3=NCCO3)cc2C(F)F)on1` [Example 84, 5-{5-[2-Difluoromethyl-4-(4,5-dihydro-2-oxazolyl)phenoxy]pentyl}-3-methylisoxazole], the MIC in the experiment with Polio 2 came to 0.11 µg/mL (≈ 0.302 µM). In addition, in experiment [1], the MIC50 is 0.082 µg/mL (≈ 0.225 µM) and the IC (MIC80 of serotype panel) was 0.72 µg/mL.

For the molecule `Cc1cc(CCCCCOc2c(Cl)cc(C(=O)NCCCl)cc2Cl)on1` [162(c), 3,5-Dichloro-N-(2-chloroethyl)-4-{[5-(3-methyl-5-isoxazolyl)pentyl]oxy}benzamide], in the experiment on Polio 2, the MIC came out at 0.48 µg/mL (≈ 1.14 µM). For the same molecule, in experiment [1], the MIC50 is 0.16 µg/mL (≈ 0.381 µM) and the IC (MIC80 of serotype panel) came out at 0.28 µg/mL.

`Cc1cc(CCCCCCCOc2ccc(C3=NC(CO)CO3)cc2)on1` (stereo not drawn) [Example 33, 5-{7-[4-(4,5-Dihydro-4-hydroxymethyl-2-oxazolyl)phenoxy]heptyl}-3-methylisoxazole]: the MIC with Polio 2 is 3 µg/mL (≈ 8.05 µM). In addition, in experiment [1], the MIC50 came out at 51 µg/mL (≈ 137 µM) and the IC (MIC80 of serotype panel) was found to be 99 µg/mL.

Turning to `Cc1cc(CCC#CCOc2c(Cl)cc(C3=NCCO3)cc2Cl)on1` [Example 151, 5-{5-[2,6-Dichloro-4-(4,5-dihydro-2-oxazolyl)phenoxy]-3-pentynyl}-3-methylisoxazole], the MIC in the experiment with Polio 2 worked out at 0.4 µg/mL (≈ 1.05 µM). Further, in experiment [1], the MIC50 was 0.2 µg/mL (≈ 0.527 µM) and the IC (MIC80 of serotype panel) is 1.2 µg/mL.

Consider `Cc1cc(CCCCCOc2ccc(-c3nc(C)c(C)o3)cc2Cl)on1` [Example 134, 5-{5-[2-Chloro-4-(4,5-dimethyl-2-oxazolyl)phenoxy]pentyl}-3-methylisoxazole], for which the MIC in the experiment with Polio 2 was determined as 1.9 µg/mL (≈ 5.07 µM). Further, in experiment [1], the MIC50 was 0.29 µg/mL (≈ 0.774 µM) and the IC (MIC80 of serotype panel) came to 0.5 µg/mL.

For the molecule `CCC(=O)Nc1cc(C2=NCCO2)ccc1OCCCCCc1cc(C)no1` [Example 102, 5-{5-[4-(4,5-Dihydro-2-oxazolyl)-2-(propionylamino)phenoxy]pentyl}-3-methylisoxazole], the MIC in the experiment with Polio 2 came out at 12.5 µg/mL (≈ 32.4 µM). In experiment [1], the MIC50 is 12.5 µg/mL (≈ 32.4 µM) and the IC (MIC80 of serotype panel) stood at 99 µg/mL.

As to `Cc1cc(CCCCCOc2c(C)cc(C3=NCCO3)cc2Cl)on1` [154(c), 5-{5-[2-Chloro-4-(4,5-dihydro-2-oxazolyl)-6-methylphenoxy]pentyl}-3-methylisoxazole], in the experiment with Polio 2, the MIC is 0.8 µg/mL (≈ 2.2 µM). Besides, in experiment [1], the MIC50 came out at 0.22 µg/mL (≈ 0.606 µM) and the IC (MIC80 of serotype panel) is 0.33 µg/mL.

In the case of `Cc1cc(CCCCCOc2ccc(C3=NC(C)CO3)c(Cl)c2)on1` (stereo not drawn) [Example 77, 5-{5-[3-Chloro-4-(4,5-dihydro-4-methyl-2-oxazolyl)phenoxy]pentyl}-3-methylisoxazole], in the experiment on Polio 2, the MIC turned out to be 0.05 µg/mL (≈ 0.138 µM). Also, in experiment [1], the MIC50 amounted to 0.088 µg/mL (≈ 0.243 µM) and the IC (MIC80 of serotype panel) is 1.47 µg/mL.

As for `Cc1cc(CCCCCOc2c(F)cc(C3=NCCO3)cc2F)on1` [159(c), 5-{5-[4-(4,5-Dihydro-2-oxazolyl)-2,6-difluorophenoxy]-pentyl}-3-methylisoxazole], the MIC in the experiment on Polio 2 was determined as 0.12 µg/mL (≈ 0.342 µM). Also, in experiment [1], the MIC50 turned out to be 0.15 µg/mL (≈ 0.428 µM) and the IC (MIC80 of serotype panel) came to 0.66 µg/mL.

Regarding `OCc1cc(CCCCCOc2c(Cl)cc(C3=NCCO3)cc2Cl)on1` [Example 116, 5-{5-[2,6-Dichloro-4-(4,5-dihydro-2-oxazolyl)phenoxy]pentyl}-3-isoxazolemethanol], in the experiment on Polio 2, the MIC was 3.1 µg/mL (≈ 7.76 µM). Moreover, in experiment [1], the MIC50 is 0.13 µg/mL (≈ 0.326 µM) and the IC (MIC80 of serotype panel) amounted to 0.5 µg/mL.

With `Cc1cc(CCCCCOc2ccc(C3=NCCO3)cc2C=O)on1` [Example 70, 5-{5-[4-(4,5-Dihydro-2-oxazolyl)-2-formylphenoxy]pentyl}-3-methylisoxazole], in the experiment with Polio 2, the MIC worked out at 0.1 µg/mL (≈ 0.292 µM). Moreover, in experiment [1], the MIC50 came out at 0.85 µg/mL (≈ 2.48 µM) and the IC (MIC80 of serotype panel) turned out to be 1.6 µg/mL.

With `Cc1cc(CCCCCOc2ccc(C3=NCCO3)c(O)c2)on1` [Example 52, 5-{5-[4-(4,5-Dihydro-2-oxazolyl)-3-hydroxyphenoxy]pentyl}-3-methylisoxazole], the MIC with Polio 2 is 0.003 µg/mL (≈ 0.00908 µM). Also, in experiment [1], the MIC50 turned out to be 0.084 µg/mL (≈ 0.254 µM) and the IC (MIC80 of serotype panel) stood at 1.9 µg/mL.

With `CCOC(=O)c1cc(C2=NCCO2)ccc1OCCCCCc1cc(C)no1` [Example 146, 5-{5-[2-Ethoxycarbonyl-4-(4,5-dihydro-2-oxazolyl)phenoxy]pentyl}-3-methylisoxazole], the MIC in the experiment with Polio 2 came to 4.2 µg/mL (≈ 10.9 µM). In experiment [1], the MIC50 was determined as 0.29 µg/mL (≈ 0.75 µM) and the IC (MIC80 of serotype panel) was found to be 0.55 µg/mL.

In the case of `Cc1cc(CCCCCOc2ccc(-c3ncco3)cc2)on1` [Example 88, 3-Methyl-5-{5-[4-(2-oxazolyl)phenoxy]pentyl}isoxazole], the MIC in the experiment with Polio 2 was found to be 0.025 µg/mL (≈ 0.08 µM). Also, in experiment [1], the MIC50 stood at 0.38 µg/mL (≈ 1.22 µM) and the IC (MIC80 of serotype panel) worked out at 25.2 µg/mL.

For `COc1cc(C2=NCCO2)ccc1OCCCCCCCc1cc(C)no1` [41(b), 5-{7-[4-(4,5-Dihydro-2-oxazolyl)-2-methoxyphenoxy]heptyl}-3-methylisoxazole], the MIC with Polio 2 was found to be 1 µg/mL (≈ 2.68 µM). Further, in experiment [1], the MIC50 is 0.55 µg/mL (≈ 1.48 µM) and the IC (MIC80 of serotype panel) came to 4 µg/mL.

On to `Cc1cc(CCCCCOc2c(Cl)cc(-c3cnco3)cc2Cl)on1` [Example 98, 5-{5-[2,6-Dichloro-4-(5-oxazolyl)phenoxy]pentyl}-3-methylisoxazole], for which the MIC in the experiment with Polio 2 worked out at 12.5 µg/mL (≈ 32.8 µM). Moreover, in experiment [1], the MIC50 is 0.21 µg/mL (≈ 0.551 µM) and the IC (MIC80 of serotype panel) was found to be 2.8 µg/mL.

For the molecule `Cc1cc(CCCCCOc2c(Cl)cc(C3=NCC(C)O3)cc2Cl)on1` (stereo not drawn) [Example 108, 5-{5-[2,6-Dichloro-4-(4,5-dihydro-5-methyl-2-oxazolyl)phenoxy]pentyl}-3-methylisoxazole], the MIC with Polio 2 stood at 2.6 µg/mL (≈ 6.54 µM). Besides, in experiment [1], the MIC50 worked out at 0.13 µg/mL (≈ 0.327 µM) and the IC (MIC80 of serotype panel) was 0.34 µg/mL.

For the molecule `CN(C)Cc1cc(CCCCCCCOc2ccc(C3=NCCO3)cc2)on1` [Example 136(b), 5-{7-[4-(4,5-Dihydro-2-oxazolyl)phenoxy]heptyl}-3-(dimethylaminomethyl)isoxazole], the MIC in the experiment with Polio 2 came to 0.62 µg/mL (≈ 1.61 µM). Besides, in experiment [1], the MIC50 was determined as 0.88 µg/mL (≈ 2.28 µM) and the IC (MIC80 of serotype panel) stood at 1.47 µg/mL.

Take `Cc1cc(CCCCCOc2c(C)cc(C(=O)NCCCl)cc2Cl)on1` [154(b), 3-Chloro-N-(2-chloroethyl)-5-methyl-4 -{[5-(3-methyl-5-isoxazolyl)pentyl]oxy}benzamide]: in the experiment on Polio 2, the MIC came to 1.13 µg/mL (≈ 2.83 µM). Besides, in experiment [1], the MIC50 was 0.17 µg/mL (≈ 0.426 µM) and the IC (MIC80 of serotype panel) was determined as 0.63 µg/mL.

For `Cc1cc(CCCCCOc2ccc(C3=NCCO3)cc2C(F)(F)F)on1` [Example 54, 5-{5-[4-(4,5-Dihydro-2-oxazolyl)-2-trifluoromethylphenoxy]pentyl}-3-methylisoxazole], in the experiment with Polio 2, the MIC worked out at 1.3 µg/mL (≈ 3.4 µM). In experiment [1], the MIC50 is 0.08 µg/mL (≈ 0.209 µM) and the IC (MIC80 of serotype panel) came out at 0.42 µg/mL.

Consider `Cc1cc(CCCCCCCOc2ccc(C3=NCC(C)O3)cc2)on1` (stereo not drawn) [34(b), 5-{7-[4-(4,5-Dihydro-5-methyl-2-oxazolyl)phenoxy]heptyl}-3-methylisoxazole], for which the MIC in the experiment with Polio 2 was determined as 0.49 µg/mL (≈ 1.37 µM). Besides, in experiment [1], the MIC50 turned out to be 0.2 µg/mL (≈ 0.561 µM) and the IC (MIC80 of serotype panel) was 26.5 µg/mL.

Turning to `CCc1cc(C(=O)NCCCl)cc(C)c1OCCCCCc1cc(C)no1` [157(c), N-(2-Chloroethyl)-3-ethyl-5-methyl-4-{[5-(3-methyl-5-isoxazolyl)pentyl]oxy}benzamide], the MIC in the experiment on Polio 2 stood at 2.1 µg/mL (≈ 5.34 µM). Moreover, in experiment [1], the MIC50 came out at 0.49 µg/mL (≈ 1.25 µM) and the IC (MIC80 of serotype panel) is 1.2 µg/mL.
